Consider two molecules from PMC3111459 (Breast cancer research and treatment, 2011).

Each structure is given as a SMILES string.

A short description of data set [1]: clinical. The following applies: human, in vivo.
Another data set concerns OAT2. The following applies: in vitro; cited from earlier work.
For data set [2] the following is noted: human, in vivo.
A further data set concerns OATP1B3. The following applies: in vitro; cited from earlier work.
The nature of data set [3]: clinical. The following applies: human, in vivo. The source holds these as a separate data set.

Take `CC(=O)O[C@@]12CO[C@@H]1C[C@H](O)[C@@]1(C)C(=O)[C@H](O)C3=C(C)[C@@H](OC(=O)[C@H](O)[C@@H](NC(=O)OC(C)(C)C)c4ccccc4)C[C@@](O)([C@@H](OC(=O)c4ccccc4)[C@H]21)C3(C)C` [Docetaxel]: in the data set “clinical [1]” (CL), the clearance (in general, a measure of how efficiently the substance is removed, as volume per time) was 272 mL/min. Also, the half-life (as a rule, the time in which the quantity being followed falls by half) in “clinical [1]” (T1/2) was 45.1 ± 20 h. Also, the “substrate for liver OAT2” value in the data set with OAT2 is “substrate for liver OAT2”. Besides, in data set [2], the CL is 18.1 ± 4.35(7) l/h and the T1/2 is on record as 60.2 ± 31.0(7) h. Besides, the “substrate for liver OATP1B3” value in the data set with OATP1B3 was “substrates for liver OATP1B3”.
`Cc1ccc(NC(=O)c2ccc(CN3CCN(C)CC3)cc2)cc1Nc1nccc(-c2cccnc2)n1` [Imatinib]: in “clinical [3]”, the time to peak (Tmax) (usually the time from dosing to the highest level) worked out at 5 h.
